Read-outs that look alike come from different tables or passages of the source.
Experiments:
NUGC3 p53 Y220C = assay: Cell Proliferation Assay (CellTiter-Glo, CTG), NUGC3 p53 Y220C; assay type: cell-based; details: Homo sapiens, NUGC-3, 120 h, NUGC3 cells, 5 days
Summary of the method: (§1)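 Tet-One inducible p53 Y220C or R273H constructs were stably introduced into NCI-H1299 by lentiviral transduction; NUGC3 was used as is. Cells (250-500 per well) were exposed to compound for 5 days, then CellTiter-Glo was added for 10 min at room temperature and IC50 was calculated from luminescence.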

[1] = target: T1, p53 Y220C mutant protein (amino acid residues 94-293) (Homo sapiens, UniProt P04637, Y220C); assay: Thermal Shift Assay (TSA), dTM; assay type: binding; details: read-out: TSA P53 Y220C dTM; for ΔTm at 10 µM: 10 uM compound
T1 construct: p53 Y220C mutant protein (amino acid residues 94-293)
Summary of the method: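 First, the mutant DNA-binding domain (5 μM) was preincubated 3 hours at 20 °C with compound at 10 μM or 100 μM. Next, the sample was heated from 30 °C to 50 °C at 0.03 °C/second in the presence of Sypro Orange. Finally, TM was obtained from a two-state Boltzmann fit.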

H1299 p53 R273H = assay: Cell Proliferation Assay (CellTiter-Glo, CTG), H1299 p53 R273H (NClH1299-inducible p53 R273H); assay type: cell-based; details: Homo sapiens, NCI-H1299, 120 h, NClH1299-inducible p53 R273H cells, 5 days
Summary of the method: as §1

[2] = target: T1, p53 Y220C mutant protein (amino acid residues 94-293); assay: Surface Plasmon Resonance (SPR) assay, Kd_kinetic; assay type: binding; details: read-out: SPR P53 Y220C KD kinetic
Summary of the method: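 Kinetic dissociation constants derived by 1:1 model fit of SPR data acquired at 16 or 20 °C, pH 7.5 Tris/NaCl running buffer with 1% DMSO.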

p53 Y220C = p53 Y220C (Homo sapiens, UniProt P04637, Y220C); assay: Luciferase Reporter Assay (Luc), p53 response element, NClH1299 cells with inducible p53 Y220C; assay type: cell-based; details: 6 hour; for AC50: read-out: Luc P53 Y220C AC50
Summary of the method: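 Luciferase activity is measured directly after One-Glo addition and a 5-minute room-temperature shake. Before that, cells plated at 5,000 per well receive doxycycline at 0.5 ug/mL for 24 hours, followed by compound for 6 hours.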

H1299 p53 Y220C = assay: Cell Proliferation Assay (CellTiter-Glo, CTG), H1299 p53 Y220C (NClH1299-inducible p53 Y220C); assay type: cell-based; details: Homo sapiens, NCI-H1299, 120 h, NClH1299-inducible p53 Y220C cells, 5 days
Summary of the method: as §1

[3] = luciferase reporter, NClH1299 inducible p53 Y220C

SMILES | IC50 (NUGC3 p53 Y220C; CellTiter-Glo) | ΔTm at 10 µM ([1]; p53 Y220C) | IC50 (H1299 p53 R273H; CellTiter-Glo) | Kd ([2]; SPR, p53 Y220C) | AC50 (p53 Y220C; [3]) | Emax (p53 Y220C; [3]) | IC50 (H1299 p53 Y220C; CellTiter-Glo) | Kd [2] | IC50 (NUGC3 p53 Y220C) | ΔTm at 10 µM [1] | ΔTm at 100 µM ([1]; 100 uM compound) | IC50 (H1299 p53 R273H) | AC50 (p53 Y220C; NClH1299 cells with inducible p53 Y220C) | Emax (p53 Y220C; NClH1299 cells with inducible p53 Y220C, 10 uM tool compound as positive control) | IC50 (H1299 p53 Y220C)
COc1cc(S(C)(=O)=O)ccc1NCC#Cc1cc2c(N[C@@H]3CCN(C)C[C@@H]3F)cccn2c1SC(F)(F)F [Example 341] | < 750 nM | ≥ 10 °C | 5 to 8 µM | < 10 nM | < 750 nM | > 90% | < 750 nM |  |  |  |  |  |  |  | 
COc1cc(S(C)(=O)=O)ccc1NCC#Cc1cc2c(N[C@@H]3CCN(C)C[C@@H]3F)nccn2c1SC(F)(F)F [Example 342] | < 750 nM | ≥ 10 °C | 5 to 8 µM |  | < 750 nM | > 90% | < 750 nM | < 10 nM |  |  |  |  |  |  | 
CNC(=O)c1ccc(OC)c(NCC#Cc2cc3c(N[C@@H]4CCN(C)C[C@@H]4F)cccn3c2SC(F)F)c1 [Example 343] | < 750 nM | ≥ 10 °C | ≥ 10 µM | < 10 nM | < 750 nM | > 90% | < 750 nM |  |  |  |  |  |  |  | 
COc1cc(S(C)(=O)=O)ccc1NCC#Cc1cc2c(N[C@@H]3CCN(C)C[C@@H]3F)cccn2c1SC(F)F [Example 344] | < 750 nM | ≥ 10 °C | 5 to 8 µM | < 10 nM | < 750 nM | > 90% | < 750 nM |  |  |  |  |  |  |  | 
CNC(=O)c1ccc(OC)c(NCC#Cc2cc3c(N[C@@H]4CCN(C)C[C@@H]4F)cccn3c2SC(F)(F)F)n1 [Example 345] | < 750 nM | ≥ 10 °C | 8 to 10 µM | < 10 nM | < 750 nM | 80 to 90% | < 750 nM |  |  |  |  |  |  |  | 
COc1cc(P(C)(C)=O)ccc1NCC#Cc1cc2c(N[C@@H]3CCN(C)C[C@@H]3F)cccn2c1SC(F)(F)F [Example 346] | < 750 nM | ≥ 10 °C | 8 to 10 µM | < 10 nM | < 750 nM | > 90% | < 750 nM |  |  |  |  |  |  |  | 
CNC(=O)c1cc(F)c(OC)c(NCC#Cc2nc3c(N[C@@H]4CCN(C)C[C@@H]4F)nccn3c2SC(F)(F)F)c1 [Example 347] | < 750 nM | ≥ 10 °C | ≥ 10 µM | < 10 nM | < 750 nM | > 90% | < 750 nM |  |  |  |  |  |  |  | 
CNC(=O)c1ccc(C(=O)NC)c(NCC#Cc2cc3c(N[C@@H]4CCN(C)C[C@@H]4F)nccn3c2SC(F)(F)F)c1 [Example 348] | < 750 nM | ≥ 10 °C | ≥ 10 µM | < 10 nM | < 750 nM | > 90% | < 750 nM |  |  |  |  |  |  |  | 
COc1cc(P(C)(C)=O)ccc1NCC#Cc1cc2c(N[C@@H]3CCN(C)C[C@@H]3F)cccn2c1SC(F)F [Example 349] | < 750 nM | ≥ 10 °C | ≥ 10 µM | < 10 nM | < 750 nM | 80 to 90% | < 750 nM |  |  |  |  |  |  |  | 
CNC(=O)c1ccc(NCC#Cc2cc3c(N[C@@H]4CCN(C5COC5)C[C@@H]4F)nccn3c2SC(F)(F)F)c(OC)c1 [Example 350] | < 750 nM | ≥ 10 °C | ≥ 10 µM |  | < 750 nM | > 90% | < 750 nM | < 10 nM |  |  |  |  |  |  | 
CNC(=O)c1ccc(OC)c(NCC#Cc2cc3c(N[C@@H]4CCN(C5COC5)C[C@@H]4F)nccn3c2SC(F)(F)F)c1 [Example 351] | < 750 nM | ≥ 10 °C | ≥ 10 µM | < 10 nM | < 750 nM | > 90% | < 750 nM |  |  |  |  |  |  |  | 
CNC(=O)CN1CC[C@@H](Nc2nccn3c(SC(F)(F)F)c(C#CCNc4cc(C(=O)NC)ccc4OC)cc23)[C@@H](F)C1 [Example 352] | < 750 nM | ≥ 10 °C | ≥ 10 µM | < 10 nM | < 750 nM | > 90% | < 750 nM |  |  |  |  |  |  |  | 
CNC(=O)c1ccc(OC)c(NCC#Cc2cc3c(N[C@@H]4CCN(CC#N)C[C@@H]4F)nccn3c2SC(F)(F)F)c1 [Example 353] | < 750 nM | ≥ 10 °C | ≥ 10 µM | < 10 nM | < 750 nM | > 90% | < 750 nM |  |  |  |  |  |  |  | 
CNC(=O)c1ccc(NCC#Cc2cc3c(N[C@@H]4CCNC[C@@H]4F)cccn3c2SC(F)(F)F)c(OC)c1 [Example 354] | < 750 nM | ≥ 10 °C | 5 to 8 µM | < 10 nM | < 750 nM | > 90% | < 750 nM |  |  |  |  |  |  |  | 
CNC(=O)c1ccc(NCC#Cc2cc3c(N[C@@H]4CCN(C)C[C@@H]4F)cccn3c2SC(F)(F)F)cc1 [Example 357] | < 750 nM | ≥ 10 °C | 5 to 8 µM | < 10 nM | < 750 nM | > 90% | < 750 nM |  |  |  |  |  |  |  | 
COc1ccc(C(=O)NC[C@H](C)O)cc1NCC#Cc1cc2c(N[C@@H]3CCN(C)C[C@@H]3F)nccn2c1SC(F)(F)F [Example 358] | < 750 nM | ≥ 10 °C | ≥ 10 µM | < 10 nM | < 750 nM | > 90% | < 750 nM |  |  |  |  |  |  |  | 
COc1ccc(C(=O)NC[C@@H](C)O)cc1NCC#Cc1cc2c(N[C@@H]3CCN(C)C[C@@H]3F)nccn2c1SC(F)(F)F [Example 359] | < 750 nM | ≥ 10 °C | ≥ 10 µM | < 10 nM | < 750 nM | > 90% | < 750 nM |  |  |  |  |  |  |  | 
CN1CC[C@@H](Nc2cccn3c(SC(F)(F)F)c(-c4noc(CNC(=O)C5CC5)n4)nc23)[C@@H](F)C1 [Example 458] |  |  |  | 10 to 100 nM |  |  |  |  | > 3000 nM | 5 to 10 °C | 5 to 10 °C | ≥ 10 µM | > 3000 nM | < 70% | > 3000 nM

From US20260374766A1, “METHODS FOR TREATING CANCER” (Antares Therapeutics, Inc., priority 2022, published 2026)
